Patent US20250066383A1, “PDE 7 MODULATOR COMPOUNDS” (Omeros Corporation, priority 2023, published 2025)

How the values were obtained:
PDE7B = PDE7B (Homo sapiens (Human), UniProt Q9NP56); test: PDE7B assay: inhibition of PDE7B hydrolysis of [3H]cAMP to [3H]AMP (scintillation proximity, yttrium silicate beads); format: biochemical; settings: 16 nM [3H]cAMP, 30° C., 20 minutes; read-out: PDE 7B IC50
Procedure: (§1) PDE7A and PDE7B Assay. Compounds were tested for their activity by measuring the inhibition of PDE7A or PDE7B hydrolysis of [3H]cAMP to [3H]AMP. Generally, eight dilutions of compound were assayed in 50 mM Tris-HCl pH 7.5, 8.3 mM MgCl2, 0.5 mg/mL BSA, 1.7 mM EGTA, 16 nM [3H]cAMP, and 1% DMSO. PDE7A or PDE7B (typically 1-5 ng/mL) (BPS BioSciences, CA) is added to initiate the reaction. The reaction was incubated at 30° C. for 20 minutes. PDE7A and PDE7B hydrolysis was terminated by the addition of yttrium silicate beads (GE Healthcare, RPNQ0150) and counted on a Wallac Microbeta scintillation counter, 1-2 hours following the addition of the beads. Data was analyzed using XLfit […] from which ICso values were obtained.

PDE7A = PDE7A (Homo sapiens (Human), UniProt Q13946); test: PDE7A assay: inhibition of PDE7A hydrolysis of [3H]cAMP to [3H]AMP (scintillation proximity, yttrium silicate beads); format: biochemical; settings: 16 nM [3H]cAMP, 30° C., 20 minutes; read-out: PDE 7A IC50
Procedure: as §1

Chain of PDE7B (Q9NP56 whole entry): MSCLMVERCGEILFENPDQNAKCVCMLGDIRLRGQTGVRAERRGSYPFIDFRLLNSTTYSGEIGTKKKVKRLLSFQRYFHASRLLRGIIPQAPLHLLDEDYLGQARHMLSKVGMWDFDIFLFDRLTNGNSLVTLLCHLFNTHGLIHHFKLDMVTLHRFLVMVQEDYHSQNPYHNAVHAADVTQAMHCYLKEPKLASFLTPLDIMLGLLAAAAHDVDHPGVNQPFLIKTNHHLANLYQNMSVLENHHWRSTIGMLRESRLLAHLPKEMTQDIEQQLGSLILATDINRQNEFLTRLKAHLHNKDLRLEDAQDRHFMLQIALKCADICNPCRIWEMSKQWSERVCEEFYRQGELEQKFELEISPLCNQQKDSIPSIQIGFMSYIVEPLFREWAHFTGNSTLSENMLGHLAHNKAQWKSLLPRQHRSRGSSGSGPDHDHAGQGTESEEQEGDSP
Chain of PDE7A (Q13946 whole entry): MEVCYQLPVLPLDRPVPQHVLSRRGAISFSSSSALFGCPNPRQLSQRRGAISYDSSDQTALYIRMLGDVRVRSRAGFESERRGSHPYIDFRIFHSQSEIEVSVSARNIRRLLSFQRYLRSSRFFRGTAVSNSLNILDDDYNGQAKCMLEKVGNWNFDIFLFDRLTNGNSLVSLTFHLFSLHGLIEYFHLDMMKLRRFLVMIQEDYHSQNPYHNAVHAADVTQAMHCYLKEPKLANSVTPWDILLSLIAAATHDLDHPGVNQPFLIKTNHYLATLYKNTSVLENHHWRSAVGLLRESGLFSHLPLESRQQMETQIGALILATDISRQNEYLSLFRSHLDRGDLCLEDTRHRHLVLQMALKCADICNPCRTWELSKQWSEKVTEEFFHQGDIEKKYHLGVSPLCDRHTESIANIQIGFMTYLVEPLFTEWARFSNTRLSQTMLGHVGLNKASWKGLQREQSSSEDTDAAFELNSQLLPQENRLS

Compound: Cc1nn(CC(C)(C)C)c2sc(C(=O)Nc3ccc(N4CCOCC4)c(C#N)c3)cc12 [II-40, N-(3-cyano-4-mor-pholinophenyl)-3-methyl-1-neopentyl-1H-thieno[2,3-c]pyr-azole-5-carboxamide]
- IC50 (PDE7B): 100 to 500 nM
- IC50 (PDE7A): 100 to 500 nM

Compound: Cc1nn(CC(C)(C)C)c2sc(C(=O)Nc3cnc(N4CCOCC4)c(Cl)c3)cc12 [II-38, N-(5-chloro-6-morpholinopyridin-3-yl)-3-methyl-1-neopentyl-1H-thieno [2,3-c]pyrazole-5-carboxamide]
- IC50 (PDE7B): 500 to 2500 nM
- IC50 (PDE7A): 100 to 500 nM

Compound: Cc1nn(CC(C)(C)C)c2sc(C(=O)N[C@H]3CC[C@H](N4CCN(CC(F)F)CC4)CC3)cc12 [II-28, N-((1r,4r)-4-(4-(2,2-difluoroethyl)piper-azin-1-yl)cyclohex-yl)-3-methyl-1-neo-pentyl-1H-thieno [2,3-c]pyrazole-5-carboxamide]
- IC50 (PDE7B): 10 to 30 nM
- IC50 (PDE7A): 10 to 30 nM

Compound: Cc1nn(CC2CCC2)c2sc(C(=O)N[C@H]3CC[C@H](N4CCN(C5CC5)CC4)CC3)cc12 [II-20, 1-(cyclobutylmethyl)-N-((1r,4r)-4-(4-cyclopropylpiperazin-1-yl)cyclohexyl)-3-methyl-1H-thieno [2,3-c]pyrazole-5-carboxamide]
- IC50 (PDE7B): 100 to 500 nM
- IC50 (PDE7A): 30 to 100 nM

Compound: CC(=O)N1CCN([C@H]2CC[C@H](NC(=O)c3cc4c(C)nn(CC(C)C)c4s3)CC2)CC1 [II-16, N-((1r,4r)-4-(4-acet-ylpiperazin-1-yl)-cyclohexyl)-1-iso-butyl-3-methyl-1H thieno[2,3-c]pyrazole-5-carboxamide]
- IC50 (PDE7B): 30 to 100 nM
- IC50 (PDE7A): 10 to 30 nM

Compound: Cc1nn(CC(C)(C)C)c2sc(C(=O)N[C@H]3CC[C@H](N4CC(F)(F)C4)CC3)cc12 [II-30, N-((1r,4r)-4-(3,3-difluoroazetidin-1-yl)cyclohexyl)-3-methyl-1-neopentyl-1H-thieno[2,3-c]pyr-azole-5-carboxamide]
- IC50 (PDE7B): < 10 nM
- IC50 (PDE7A): < 10 nM

Compound: CC(=O)N1CCN([C@H]2CC[C@H](NC(=O)c3cc4c(C)nn(-c5ccccc5Cl)c4s3)CC2)CC1 [Compound I-4, N-((1r,4r)-4-(4-acetyl-piperazin-1-yl)cyclo-hexyl)-1-(2-chloro-phenyl)-3-methyl-1H-thieno[2,3-c]pyrazole-5-carboxamide]
- IC50 (PDE7B): < 10 nM
- IC50 (PDE7A): < 10 nM

Compound: CC(=O)N1CCN([C@H]2CC[C@H](NC(=O)c3cc4c(C)nn(C5CCC(F)(F)CC5)c4s3)CC2)CC1 [II-9, N-((1r,4r)-4-(4-acet-ylpiperazin-1-yl)-cyclohexyl)-1-(4,4-difluorocyclohexyl)-3-methyl-1H-thieno [2,3-c]pyrazole-5-carboxamide]
- IC50 (PDE7B): < 10 nM
- IC50 (PDE7A): < 10 nM

Compound: Cc1nn(CC(C)(C)C)c2sc(C(=O)N[C@H]3C[C@H](N4CCOCC4)C3)cc12 [II-25, 3-methyl-N-((1r,3r)-3-morpholinocyclo-butyl)-1-neopentyl-1H-thieno[2,3-c]pyr-azole-5-carboxamide]
- IC50 (PDE7B): 30 to 100 nM
- IC50 (PDE7A): 10 to 30 nM

Compound: Cc1nn(C2CCC(F)(F)CC2)c2sc(C(=O)N[C@H]3CC[C@H](N4CCN(CC(F)F)CC4)CC3)cc12 [II-11, 1-(4,4-difluorocyclo-hexyl)-N-((1r,4r)-4-(4-(2,2-difluoroeth-yl)piperazin-1-yl)-cyclohexyl)-3-meth-yl-1H-thieno[2,3-c] pyrazole-5-carbox-amide]
- IC50 (PDE7B): 10 to 30 nM
- IC50 (PDE7A): 10 to 30 nM

Compound: Cc1nn(CC(C)C)c2sc(C(=O)N[C@H]3CC[C@H](N4CC(F)(F)C4)CC3)cc12 [II-4, N-((1r,4r)-4-(3,3-difluoroazetidin-1-yl)-cyclohexyl)-1-isobut-yl-3-methyl-1H-thieno [2,3-c]pyrazole-5-carboxamide]
- IC50 (PDE7B): 30 to 100 nM
- IC50 (PDE7A): 10 to 30 nM

Compound: Cc1nn(-c2ccccc2)c2sc(C(=O)N[C@H]3CC[C@H](N4CCOCC4)CC3)cc12 [Compound I-8, 3-methyl-N-((1r,4r)-4-morpholinocyclohex-yl)-1-phenyl-1H-thieno [2,3-c]pyrazole-5-carboxamide]
- IC50 (PDE7B): 100 to 500 nM
- IC50 (PDE7A): 100 to 500 nM

Compound: Cc1nn(C2CCC(F)(F)CC2)c2sc(C(=O)N[C@H]3CC[C@H](N4CC(F)(F)C4)CC3)cc12 [II-17, N-((1r,4r)-4-(3,3-difluoroazetidin-1-yl)cyclohexyl)-1-(4,4-difluorocyclohexyl)-3-methyl-1H-thieno [2,3-c]pyrazole-5-carboxamide]
- IC50 (PDE7B): < 10 nM
- IC50 (PDE7A): < 10 nM

Compound: Cc1nn(-c2ccccn2)c2sc(C(=O)N[C@H]3CC[C@H](N4CCOCC4)CC3)cc12 [Compound I-1, 3-methyl-N-((1r,4r)-4-morpholinocyclohex-yl)-1-(pyridin-2-yl)-1H-thieno[2,3-c]pyr-azole-5-carboxamide]
- IC50 (PDE7B): 100 to 500 nM
- IC50 (PDE7A): 100 to 500 nM

Compound: Cc1nn(-c2ccccc2Cl)c2sc(C(=O)N[C@H]3C[C@H](N4CCOCC4)C3)cc12 [Compound I-3, 1-(2-chlorophenyl)-3-methyl-N-((1r,3r)-3-morpholinocyclobut-yl)-1H-thieno[2,3-c] pyrazole-5-carbox-amide]
- IC50 (PDE7B): 30 to 100 nM
- IC50 (PDE7A): 10 to 30 nM

Compound: CC(=O)N1CCN([C@H]2C[C@H](NC(=O)c3cc4c(C)nn(-c5ccccc5Cl)c4s3)C2)CC1 [Compound I-5, N-((1r,3r)-3-(4-acetyl-piperazin-1-yl)cyclo-butyl)-1-(2-chlorophen-yl)-3-methyl-1H-thieno [2,3-c]pyrazole-5-carboxamide]
- IC50 (PDE7B): 30 to 100 nM
- IC50 (PDE7A): 30 to 100 nM

Compound: Cc1nn(C2C[C@@H](C)O[C@@H](C)C2)c2sc(C(=O)N[C@H]3CC[C@H](N4CCN(C(C)C)CC4)CC3)cc12 (some centres unmarked) [II-1, 1-((2r,6s)-2,6-dimeth-yltetrahydro-2H-pyr-an-4-yl)-N-((1r,4r)-4-(4-isopropylpiperazin-1-yl)cyclohexyl)-3-methyl-1H-thieno [2,3-c]pyrazole-5-carboxamide]
- IC50 (PDE7B): 500 to 2500 nM
- IC50 (PDE7A): 100 to 500 nM

Compound: Cc1nn(CC(C)(C)C)c2sc(C(=O)N[C@H]3CC[C@H](N4CCN(C5CC5)CC4)CC3)cc12 [II-24, N-((1r,4r)-4-(4-cyclo-propylpiperazin-1-yl)-cyclohexyl)-3-meth-yl-1-neopentyl-1H-thieno[2,3-c]pyrazole-5-carboxamide]
- IC50 (PDE7B): < 10 nM
- IC50 (PDE7A): < 10 nM

Compound: Cc1nn(C2CCC(F)(F)CC2)c2sc(C(=O)N[C@H]3C[C@H](N4CCOCC4)C3)cc12 [II-18, 1-(4,4-difluorocyclo-hexyl)-3-methyl-N-((1r,3r)-3-morpho-linocyclobutyl)-1H-thieno[2,3-c]pyrazole-5-carboxamide]
- IC50 (PDE7B): 10 to 30 nM
- IC50 (PDE7A): 10 to 30 nM

Compound: Cc1nn(C2CCC(F)(F)CC2)c2sc(C(=O)N[C@H]3CC[C@H](N4CCOCC4)CC3)cc12 [II-13, 1-(4,4-difluorocyclo-hexyl)-3-methyl-N-((1r,4r)-4-morpho-linocyclohexyl)-1H-thieno[2,3-c]pyrazole-5-carboxamide]
- IC50 (PDE7B): 10 to 30 nM
- IC50 (PDE7A): 10 to 30 nM

Compound: Cc1nn(CC(C)(C)C)c2sc(C(=O)N[C@H]3CC[C@H](N4CCN(C(C)C)CC4)CC3)cc12 [II-31, N-((1r,4r)-4-(4-iso-propylpiperazin-1-yl)cyclohexyl)-3-methyl-1-neopentyl-1H-thieno[2,3-c]pyr-azole-5-carboxamide]
- IC50 (PDE7B): < 10 nM
- IC50 (PDE7A): < 10 nM

Compound: Cc1nn(C2CCC(F)(F)CC2)c2sc(C(=O)N[C@H]3CC[C@H](N4CCC(F)(F)C4)CC3)cc12 [II-26, 1-(4,4-difluorocyclo-hexyl)-N-((1r,4r)-4-(3,3-difluoropyrrol-idin-1-yl)cyclohexyl)-3-methyl-1H-thieno [2,3-c]pyrazole-5-carboxamide]
- IC50 (PDE7B): < 10 nM
- IC50 (PDE7A): < 10 nM

Compound: Cc1nn(CC(C)(C)C)c2sc(C(=O)N[C@H]3CC[C@H](N4CCC(F)(F)C4)CC3)cc12 [II-27, N-((1r,4r)-4-(3,3-difluoropyrrolidin-1-yl)cyclohexyl)-3-methyl-1-neopentyl-1H-thieno[2,3-c]pyr-azole-5-carboxamide]
- IC50 (PDE7B): < 10 nM
- IC50 (PDE7A): < 10 nM

Compound: CC(=O)N1CCN([C@H]2CC[C@H](NC(=O)c3cc4c(C)nn(C5C[C@@H](C)O[C@@H](C)C5)c4s3)CC2)CC1 (some centres unmarked) [II-2, N-((1r,4r)-4-(4-acetylpiperazin-1-yl)-cyclohexyl)-1-((2r,6s)-2,6-dimeth-yltetrahydro-2H-pyr-ran-4-yl)-3-methyl-1H-thieno[2,3-c]pyr-azole-5-carboxamide]
- IC50 (PDE7B): 100 to 500 nM
- IC50 (PDE7A): 30 to 100 nM

Compound: CC(=S)N1CCN([C@H]2CC[C@H](NC(=O)c3cc4c(C)nn(CC(C)C)c4s3)CC2)CC1 [II-23, N-((1r,4r)-4-(4-ethanethioylpiperazin-1-yl)cyclohexyl)-1-isobutyl-3-methyl-1H-thieno[2,3-c]pyrazole-5-carboxamide]
- IC50 (PDE7B): 30 to 100 nM
- IC50 (PDE7A): 10 to 30 nM
